# From patent EP3241555A1, “USE OF PYROPHOSPHATE ION ANALOGUES FOR THE TREATMENT OF HPV INFECTION” (Agencia Pública Empresarial Sanitaria Costa Del Sol, priority 2014, dated 2016)
# Where “and” joins values, the source holds several entries; their conditions need not be identical. Identical values can stand only once.
# Assays:
# [1] = target: HIV reverse transcriptase (HIV, RT) (Human immunodeficiency virus type 1 group M subtype B, UniProt P04585); conditions: read-out: ID50; cited from earlier work
# HPV [2] = conditions: used topically, master formulation as a cream; different types of viral warts; cited from earlier work
# HPV [3] = experiment: Expanded trial in 28 patients with warts treated with topical foscarnet; format: in vivo, human
# Description: A total of 28 patients, from which 64.3% are female patients and 35.7% male patients to whom treatment was administered, were studied. The mean age was […] (6-64) and with a median age of 16 years.
# It is important to point out that 96.4% of the patients had received prior treatments without any results, where the most common treatments are cryotherapy involving 78.6% of said patients and topical keratolytic drugs involving 67.9% of them.
# Most of the patients (71.4%) applied the treatment 2 times a day and in 78.6% of the cases, the area of application was banded for the night. The rest of the patients applied the treatment 1 or 3 times/day.
# The mean duration of the treatment was 11.57 (3-28) weeks.
compound,measurement,setting,value
O=C(O)P(=O)(O)O [Trisodium phosphonoformate],IC50,[1],~1000 nM
Nc1ccn(C[C@@H](CO)OCP(=O)(O)O)c(=O)n1 [cidofovir],cure rates,HPV [2],high cure rates
"O=C(O)P(=O)(O)O [foscarnet, phosphonoformic acid]","Adverse effects to treatment: No, Percentage",HPV [3]; 28 patients,89.3%
same,"Adverse effects to treatment: No, Percentage valid",HPV [3]; 28 patients,89.3%
same,"Adverse effects to treatment: Yes, Percentage valid",HPV [3]; 28 patients,10.7%
same,"Response to treatment: Complete, Percentage",HPV [3]; 28 patients,39.3%
same,"Response to treatment: Complete, Percentage valid",HPV [3]; 28 patients,39.3%
same,"Response to treatment: No, Percentage",HPV [3]; 28 patients,28.6%
same,"Response to treatment: No, Percentage valid",HPV [3]; 28 patients,28.6%
same,"Response to treatment: Partial, Percentage",HPV [3]; 28 patients,32.1%
same,"Response to treatment: Partial, Percentage valid",HPV [3]; 28 patients,32.1%
same,percentage of response,"HPV [3]; 28 patients, full plus partial response",71.4%
same,"Adverse effects to treatment: Yes, Percentage","HPV [3]; 28 patients, very mild localized adverse effects (erythema or slight irritation/itch)",10.7%
same,"Time effect starts (weeks), Maximum",HPV [3]; N valid 28,16 weeks
same,"Time effect starts (weeks), Mean",HPV [3]; N valid 28,5.25 (± 4.98) weeks and 5.25 weeks
same,"Time effect starts (weeks), Median",HPV [3]; N valid 28,4.00 weeks
same,"Time effect starts (weeks), Minimum",HPV [3]; N valid 28,0 weeks
same,"Adverse effects to treatment: No, Frequency",HPV [3]; number of patients out of 28,25
same,"Response to treatment: Complete, Frequency",HPV [3]; number of patients out of 28,11
same,"Response to treatment: No, Frequency",HPV [3]; number of patients out of 28,8
same,"Response to treatment: Partial, Frequency",HPV [3]; number of patients out of 28,9
same,"Recurrence: No, Frequency","HPV [3]; number of patients out of 28, 1 lost",27
same,"Adverse effects to treatment: Yes, Frequency","HPV [3]; number of patients out of 28, very mild localized adverse effects (erythema or slight irritation/itch)",3
same,"Recurrence: No, Percentage valid",HPV [3]; of 27 valid patients,100.0%
same,"Recurrence: No, Percentage","HPV [3]; of 28 patients, 1 lost",96.4%
